From patent publication EP0211573A1, “Novel antimicrobial active agent and its production” (NICHIREI CORPORATION, priority 1985, dated 1987)
“Also recorded” adds a separate entry of the source.

Assays:
[1] = Acute toxicity, intraperitoneal administration; details: mouse, in vivo, ip, mice, in physiological saline containing gum arabic, read-out: LD₅₀
Protocol: A compound, 1 - 5 mg, dissolved in physiological saline 0.2 ml containing gum arabic is administered intra peritoneally in mice, body weight 25 g, 10 mice in one group. LD₅₀ is over 200 mg/kg.

[2] = Physico-chemical properties (solubility, nature); assay type: physicochemical
Bacillus subtilis = test: Paper disc agar antimicrobial activity assay (inhibitory zone); assay type: cell-based; set-up: key to Diameter of inhibitory zone: ±: inhibitory zone slightly observed; +: inhibitroy zone < 7mm; details: paper disc 6 mm, 37 °C, 12 hours incubation
Protocol: (§1) The compound (Ia) dissolved in chloroform is immersed in paper disc, diameter 6 mm, and dried on a filter paper. Microbial strains shown in Table 1 are inoculated in agar medium, and paper discs hereinabove 1) are placed thereon then incubated at the temperature shown in the Table. Diameter of inhibitory zone is measured after 12 hours incubation.

Escherichia coli = test: as above; assay type: cell-based; set-up: key to Diameter of inhibitory zone: ±: inhibitory zone slightly observed; +: inhibitroy zone < 7mm; details: paper disc 6 mm, 37 °C, 12 hours incubation
Protocol: as §1

Sarcina lutea = test: as above; assay type: cell-based; set-up: key to Diameter of inhibitory zone: ±: inhibitory zone slightly observed; +: inhibitroy zone < 7mm; details: paper disc 6 mm, 37 °C, 12 hours incubation
Protocol: as §1

Staphylococcus aureus = test: as above; assay type: cell-based; details: paper disc 6 mm, 37 °C, 12 hours incubation, read-out: Diameter of inhibitory zone
Protocol: as §1

Saccharomyces sake = test: as above; assay type: cell-based; details: paper disc 6 mm, 27 °C, 12 hours incubation, read-out: Diameter of inhibitory zone
Protocol: as §1

Question: What does the source list for `COC1=C(OC)C(=O)c2c(O)c3c(c(O)c2C1=O)OCO3` [Ia, 5,8-dihydroxy-2,3-dimethoxy-6,7-methylenedioxy-1,4-naphthoquinone]?
Answer: LD50 [1]: > 200 mg/kg; nature [2]: acidic substance (water soluble under alkaline conditions); solubility ([2]; acidic conditions, in organic solvent): soluble; solubility ([2]; acidic conditions, in water): insoluble; solubility ([2]; alkaline conditions, in organic solvents): insoluble; solubility ([2]; alkaline conditions, in water): easily soluble; also recorded: easily soluble under neutral and acidic conditions in organic solvents such as methanol, acetone, ethyl acetate, chloroform or benzene; easily soluble under alkaline conditions in water; solubility ([2]; neutral and acidic conditions, in organic solvents such as methanol, acetone, ethyl acetate, chloroform or benzene): easily soluble; also recorded: easily soluble under neutral and acidic conditions in organic solvents such as methanol, acetone, ethyl acetate, chloroform or benzene; easily soluble under alkaline conditions in water; zone of inhibition at 14 µg/mL (Bacillus subtilis; Bacillus subtilis, sample density 14 μg/m ℓ, read-out: Diameter of inhibitory zone): 7.1 mm; zone of inhibition at 28 µg/mL (Bacillus subtilis; Bacillus subtilis, sample density 28 μg/m ℓ, read-out: Diameter of inhibitory zone): 9.5 mm; zone of inhibition at 56 µg/mL (Bacillus subtilis; Bacillus subtilis, sample density 56 μg/m ℓ, read-out: Diameter of inhibitory zone): 8.6 mm; zone of inhibition at 112 µg/mL (Bacillus subtilis; Bacillus subtilis, sample density 112 μg/m ℓ, read-out: Diameter of inhibitory zone): 13.3 mm; zone of inhibition at 224 µg/mL (Bacillus subtilis; Bacillus subtilis, sample density 224 μg/m ℓ, read-out: Diameter of inhibitory zone): 13.3 mm; zone of inhibition at 448 µg/mL (Bacillus subtilis; Bacillus subtilis, sample density 448 μg/m ℓ, read-out: Diameter of inhibitory zone): 15.5 mm; Diameter of inhibitory zone (Bacillus subtilis; sample density 7 μg/m ℓ): ±**; zone of inhibition at 112 µg/mL (Escherichia coli; Escherichia coli, sample density 112 μg/m ℓ, read-out: Diameter of inhibitory zone): < 7 mm; zone of inhibition at 224 µg/mL (Escherichia coli; Escherichia coli, sample density 224 μg/m ℓ, read-out: Diameter of inhibitory zone): < 7 mm; zone of inhibition at 448 µg/mL (Escherichia coli; Escherichia coli, sample density 448 μg/m ℓ, read-out: Diameter of inhibitory zone): < 7 mm; Diameter of inhibitory zone (Escherichia coli; sample density 56 μg/m ℓ): ±; zone of inhibition at 56 µg/mL (Sarcina lutea; Micrococcus luteus, sample density 56 μg/m ℓ, read-out: Diameter of inhibitory zone): < 7 mm; zone of inhibition at 112 µg/mL (Sarcina lutea; Micrococcus luteus, sample density 112 μg/m ℓ, read-out: Diameter of inhibitory zone): 7.4 mm; zone of inhibition at 224 µg/mL (Sarcina lutea; Micrococcus luteus, sample density 224 μg/m ℓ, read-out: Diameter of inhibitory zone): 7.4 mm; zone of inhibition at 448 µg/mL (Sarcina lutea; Micrococcus luteus, sample density 448 μg/m ℓ, read-out: Diameter of inhibitory zone): 7.4 mm; Diameter of inhibitory zone (Sarcina lutea; sample density 14 μg/m ℓ): ±; Diameter of inhibitory zone (Sarcina lutea; sample density 28 μg/m ℓ): ±; zone of inhibition at 28 µg/mL (Staphylococcus aureus; sample density 28 μg/m ℓ): < 7 mm; zone of inhibition at 56 µg/mL (Staphylococcus aureus; sample density 56 μg/m ℓ): < 7 mm; zone of inhibition at 112 µg/mL (Staphylococcus aureus; sample density 112 μg/m ℓ): < 7 mm; zone of inhibition at 224 µg/mL (Staphylococcus aureus; sample density 224 μg/m ℓ): 7.7 mm; zone of inhibition at 448 µg/mL (Staphylococcus aureus; sample density 448 μg/m ℓ): 8.45 mm; zone of inhibition at 56 µg/mL (Saccharomyces sake; sample density 56 μg/m ℓ): < 7 mm; zone of inhibition at 224 µg/mL (Saccharomyces sake; sample density 224 μg/m ℓ): 7 mm; zone of inhibition at 448 µg/mL (Saccharomyces sake; sample density 448 μg/m ℓ): 7.3 mm
